≈ marks a conversion by molar mass, not a printed value.

In general, NOAEL refers to the highest dose or exposure tested at which no adverse effect was seen.

The subject of data set [1] is Bibionidae. Particulars: chronic/long-term; duration: 28 days.
The test system of data set [2] is Leuciscus idus. As to conditions: acute; duration: 96 hours; mortality.
Data set [3] deals with Rattus norvegicus. As to conditions: for LD50: mortality.
Data set [4] has as its system Daphnia magna. Particulars: chronic/long-term; duration: 21 days; reproduction.
In data set [5] the test system is Plant. As to conditions: not reported; seedling emergence.
Data set [6] has as its system Apis mellifera. As to conditions: acute; duration: 48 hours; dermal; mortality.
The test system of data set [7] is Oncorhynchus mykiss. As to conditions: chronic/long-term; duration: 28 days; growth.
Data set [8] relates to Tagia sp.
In data set [9] the test system is Colinus virginianus. As to conditions: for LD50: acute, oral, mortality; for NOEL: reproduction developmental.
The subject of data set [10] is Aphidius rhopalosiphi. Briefly: LR50; higher = less toxic. As to conditions: acute; duration: 48 hours; mortality.
Data set [11] has as its system Typhlodromus pyri. Briefly: LR50; higher = less toxic. As to conditions: acute; duration: 14 days; mortality.

With `CC(C)(C)C(O)C(Oc1ccc(Cl)cc1)n1cncn1` (centres undefined) [Triadimenol], the NOEC came out at 0.1 mg/L in [1], 0.1 mg/L in data set [4], 3.13 mg/L in data set [7] and 100 mg/kg in data set [8] (chronic/long-term). Further, the LC50 came to 17.4 mg/L (≈ 58.8 µM) in data set [2] and 781 mg/kg in [8] (acute, mortality). Besides, the LD50 in [3] (acute, oral, M) is 689 mg/kg-day; in data set [6], > 200 µg/piece; in [9] (diet) it was > 705 mg/kg-day; in data set [9], > 2000 mg/kg-day. The no-observed-adverse-effect level (NOAEL) in data set [3] (acute, oral, clinical signs) stood at 2 mg/kg-day; in data set [3] (chronic, duration: 2 years, organ weight) it was 5 mg/kg-day; in [3] (reproduction developmental, body weight) it was 6 mg/kg-day; in data set [3] (subchronic, clinical signs), 3.4 mg/kg-day. For the same compound, the NOEL in data set [3] (reproduction developmental, M, growth) was found to be 8.88 mg/kg-day; in data set [9] it was 7.5 mg/kg-day. Further, the LEL in data set [5] is 125 g/ha. In addition, the LR50 in data set [10] and in data set [11] was > 1250 g/ha each time.

In [9], `CC(C)(C)C(=O)C(Oc1ccc(Cl)cc1)n1cncn1` (centres undefined) [Triadimefon] registered an NOEL of 43.5 mg/kg-day.

As for `NC(Cc1ncn[nH]1)C(=O)O` (centres undefined) [1,2,4-Triazole-3-alanine], the LD50 in data set [3] (acute, oral) was > 5000 mg/kg-day; in data set [9] (diet), 1310 mg/kg-day; in [9], > 5000 mg/kg-day.

With `c1nc[nH]n1` [1H-1,2,4-Triazole], the LD50 in data set [3] (acute, oral) stood at 1650 mg/kg-day.

The record behind these values is EPA's ToxValDB 9.5 (doi:10.2903/j.efsa.2008.177r).
